# Experimental data published in patent US20240109863A1, “2-PYRIDONE DERIVATIVE, AND PREPARATION METHOD THEREFOR AND PHARMACEUTICAL APPLICATION THEREOF” (KPC PHARMACEUTICALS, INC, priority 2020, published 2024).
# Tests used:
# THRβ = biological target: T1, THRβ (Homo sapiens, UniProt P10828); experiment: THRβ binding assay (time-resolved FRET coactivator peptide recruitment); format: biochemical; conditions: THRβ-LBD/RXRα, SRC2-2 coactivator peptide recruitment, 4 hours at room temperature
# T1 construct: RXRα and THRβ-LBD Eu-anti-GST antibody with GST tag
# Method: Experimental methods: In vitro analysis of the agonistic effect of compounds on THRβ was performed using time-resolved fluorescence resonance energy transfer coactivator peptide recruitment assays. The assay used biotin-SRC2-2 coactivator peptide, streptavidin-d2, RXRα and THRβ-LBD Eu-anti-GST antibody with GST tag. Eu-anti-GST antibody indirectly labeled THRβ-LBD by binding to the GST tag. Streptavidin-d2 indirectly labeled the SRC2-2 coactivator peptide by binding to the biotin tag. In the presence of RXRα, THRβ-LBD can form heterodimer THRβ-LBD/RXRα with it. […] According to the effect of different concentrations of the compound on the activity of THRβ, the agonistic ability of the compound can be evaluated.
# The detailed procedure is as follows: • a. 100× reference compound or compound was prepared with DMSO, and equally diluted by 1:3. • b. 100× gradiently diluted reference compound or compound was diluted with 1× reaction buffer to 4×, which was then added to an assay plate. • c. A mixed solution of 4× THRβ-LBD and 4× RXRα was prepared with 1× reaction buffer, and added to the assay plate. • d. A mixed solution of 2× biotin-SRC2-2, 2× Eu-anti-GST, and 2× streptavidin-d2 was prepared with 1× reaction buffer, and added to the assay plate. • e. The assay plate was centrifuged at 1000 rpm for 1 min, and incubated at room temperature in the dark for 4 hours. • f.
# THRα = biological target: T2, THRα (Homo sapiens, UniProt P10827); experiment: THRα binding assay (as the THRβ assay, THRβ replaced with THRα); format: biochemical; conditions: for EC50: THRα in place of THRβ; for THRα/β selectivity (fold): ratio of THRα EC50 to THRβ EC50
# T2 construct: GST
# [1] = In vitro liver microsome stability assay; format: in vitro ADME; conditions: liver microsomes, pH 7.4; human, 0.2 mg/mL liver microsomal protein, 1 μM test substance, 37° C.; read-out: Liver microsome stability (species: human): T½
# Method: The test substance and the positive control substance verapamil were respectively dissolved with DMSO to 10 mM as a stock solution. The above 10 mM stock solution was diluted with 70% acetonitrile aqueous solution to a concentration of 0.25 mM.
# An NADPH regeneration system finally containing concentrations of 6.5 mM NADP, 16.5 mM G-6-P, 3 U/mL G-6-PDH, and 3.3 mM MgCl was prepared.
# Stopping solution was an acetonitrile solution containing tolbutamide and propranolol (both internal standards).
# Phosphate buffer was a 100 mM K3PO4 (pH=7.4) buffer containing 3.3 mM MgCl2.
# Liver microsomal incubation system was a 100 mM phosphate buffer containing 0.2 mg/mL liver microsomal protein and 1 μM test substance/positive control.
# 80 μL of the mixed solution from the incubation system was taken. 400 μL of the stopping solution was added to precipitate protein. The mixture was vortexed and added with 20 μL of NADPH regeneration system as the sample at 0 min.
# 130 μL of NADPH regeneration system was added to the remaining 520 μL of protein-drug mixed solution. The mixture was mixed well, and incubated. The final incubation system was 650 μL, containing 0.2 mg/mL liver microsomal protein, 1 μM test substance/positive control, 1.3 mM NADP, 3.3 mM G-6-P, and 0.6 U/mL G-6-PDH.
# The mixed system was slowly shaken and incubated in a water bath at 37° C. 100 μL of the incubation solution was taken at 5, 10, 30, and 60 min, respectively, and added into a new 96-well plate with 400 μL of stopping solution in each well. The mixture in each well was mixed well, and the protein was precipitated by centrifuging at 4000×g for 15 minutes at 4° C.
# 100 μL of the supernatant was taken, and diluted with water at a ratio of 1:2. The samples were analyzed by LC-MS/MS.
# T1 sequence (P10828 217-461 limits assumed, other chains not shown): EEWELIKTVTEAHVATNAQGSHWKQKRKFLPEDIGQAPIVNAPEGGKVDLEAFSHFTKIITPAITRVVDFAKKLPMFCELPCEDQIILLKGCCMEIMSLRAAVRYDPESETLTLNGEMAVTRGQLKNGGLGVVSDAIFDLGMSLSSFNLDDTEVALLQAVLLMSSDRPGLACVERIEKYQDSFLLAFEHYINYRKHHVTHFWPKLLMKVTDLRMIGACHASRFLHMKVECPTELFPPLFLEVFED
# T1 sequence (P19793 whole entry partner, other chains not shown, the tested form may be a part): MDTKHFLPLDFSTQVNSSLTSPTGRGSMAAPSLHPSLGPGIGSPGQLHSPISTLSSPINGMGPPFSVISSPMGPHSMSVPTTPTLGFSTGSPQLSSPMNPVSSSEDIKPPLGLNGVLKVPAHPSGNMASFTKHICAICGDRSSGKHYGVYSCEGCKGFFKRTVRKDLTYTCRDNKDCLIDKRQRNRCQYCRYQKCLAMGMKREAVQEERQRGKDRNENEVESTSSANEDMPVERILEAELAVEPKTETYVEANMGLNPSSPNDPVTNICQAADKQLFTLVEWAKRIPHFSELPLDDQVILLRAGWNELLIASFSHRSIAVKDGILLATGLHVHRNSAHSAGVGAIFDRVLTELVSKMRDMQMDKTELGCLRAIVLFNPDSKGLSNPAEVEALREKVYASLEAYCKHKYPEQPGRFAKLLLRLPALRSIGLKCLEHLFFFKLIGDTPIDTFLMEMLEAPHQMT
# T2 sequence (P10827 1-410 isoform P10827-2, other chains not shown): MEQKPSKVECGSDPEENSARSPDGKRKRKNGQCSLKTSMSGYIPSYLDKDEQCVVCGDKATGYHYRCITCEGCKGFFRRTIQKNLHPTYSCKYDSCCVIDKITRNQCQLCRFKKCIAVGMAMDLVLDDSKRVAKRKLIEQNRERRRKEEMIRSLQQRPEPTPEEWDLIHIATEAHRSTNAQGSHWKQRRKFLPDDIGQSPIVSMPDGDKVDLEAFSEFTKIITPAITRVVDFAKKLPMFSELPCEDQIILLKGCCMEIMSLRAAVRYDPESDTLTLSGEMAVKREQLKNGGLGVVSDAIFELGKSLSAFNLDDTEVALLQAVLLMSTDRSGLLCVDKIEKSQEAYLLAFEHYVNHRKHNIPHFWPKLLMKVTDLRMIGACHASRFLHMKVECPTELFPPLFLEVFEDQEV
# T2 sequence (P19793 whole entry partner, other chains not shown): as the sequence (P19793 whole entry partner, other chains not shown, the tested form may be a part) above
Structure (SMILES),EC50 (THRβ),EC50 (THRα),THRα/β selectivity (fold) (THRα),half-life at 1 μM [1]
"N#Cc1nn(-c2cc(Cl)c(Oc3ccc(=O)n(C4CCC4)c3)c(Cl)c2)c(=O)[nH]c1=O [Example 3, 2-(3,5-dichloro-4-[(1-cyclobutyl-6-oxo-1,6-dihydropyridin-3-yl)oxy]phenyl)-3,5-dioxo-2,3,4,5-tetrahydro-1,2,4-triazine-6-carbonitrile]",23 nM,290 nM,12.6 fold,62.8 min
"N#Cc1nn(-c2cc(Cl)c(Oc3ccc(=O)n(C4CCCC4=O)c3)c(Cl)c2)c(=O)[nH]c1=O (stereo not shown) [Example 4, 2-(3,5-dichloro-4-((6-oxo-1-(2-oxocyclopentyl)-1,6-dihydropyridin-3-yl)oxy)phenyl)-3,5-dioxo-2,3,4,5-tetrahydro-1,2,4-triazine-6-carbonitrile]",561 nM,–,–,110 min
"N#Cc1nn(-c2cc(Cl)c(Oc3ccc(=O)n(CC4CCCC4)c3)c(Cl)c2)c(=O)[nH]c1=O [Example 5, 2-(3,5-Dichloro-4-((1-(cyclopentylmethyl)-6-oxo-1,6-dihydropyridin-3-yl)oxy)phenyl) -3,5-dioxo-2,3,4,5-tetrahydro-1,2,4-triazine-6-carbonitrile]",20 nM,–,–,2.1 min
"N#Cc1nn(-c2cc(Cl)c(Oc3ccc(=O)n(C4CCCCC4)c3)c(Cl)c2)c(=O)[nH]c1=O [Example 9, 2-(3,5-Dichloro-4-((1-cyclohexyl-6-oxo-1,6-dihydropyridin-3-yl)oxy)phenyl)-3,5-dioxo-2,3,4,5-tetrahydro-1,2,4-triazine-6-carbonitrile]",12 nM,–,–,7 min
"N#Cc1nn(-c2cc(Cl)c(Oc3ccc(=O)n(C4CC4)c3)c(Cl)c2)c(=O)[nH]c1=O [Example 10, 2-(3,5-Dichloro-4-((1-cyclopropyl-6-oxo-1,6-dihydropyridin-3-yl)oxy)phenyl)-3,5-diox o-2,3,4,5-tetrahydro-1,2,4-triazine-6-carbonitrile]",107 nM,–,–,> 120 min
"N#Cc1nn(-c2cc(Cl)c(Oc3ccc(=O)n(C4=CCCC4)c3)c(Cl)c2)c(=O)[nH]c1=O [Example 11, 2-(3,5-Dichloro-4-((1-(cyclopentyl-1-en-1-yl)-6-oxo-1,6-dihydropyridin-3-yl)oxy)phenyl)-3,5-dioxo-2,3,4,5-tetrahydro-1,2,4-triazine-6-carbonitrile]",17 nM,236 nM,13.9 fold,41.6 min
N#Cc1nn(-c2cc(Cl)c(Oc3ccc(=O)n(C4CCCC4)c3)c(Cl)c2)c(=O)[nH]c1=O [Example 12],18 nM,–,–,4.4 min
[2H]C1(n2cc(Oc3c(Cl)cc(-n4nc(C#N)c(=O)[nH]c4=O)cc3Cl)ccc2=O)CCCC1 [Example 14],30 nM,600 nM,20.0 fold,4.6 min
"N#Cc1nn(-c2cc(Cl)c(Oc3cc(Cl)c(=O)n(C4CCCC4)c3)c(Cl)c2)c(=O)[nH]c1=O [Example 15, 2-(3,5-Dichloro-4-[(5-chloro-1-cyclopentyl-6-oxo-1,6-dihydropyridin-3-yl)oxy]phenyl) -3,5-dioxo-2,3,4,5-tetrahydro-1,2,4-triazine-6-carbonitrile]",793 nM,–,–,11.5 min
"N#Cc1nn(-c2cc(Cl)c(Oc3cc(F)c(=O)n(C4CCCC4)c3)c(Cl)c2)c(=O)[nH]c1=O [Example 16, 2-(3,5-Dichloro-4-((1-cyclopentyl-5-fluoro-6-oxo-1,6-dihydropyridin-3-yl)oxy)phenyl) -3,5-dioxo-2,3,4,5-tetrahydro-1,2,4-triazine-6-carbonitrile]",370 nM,–,–,5.1 min
"Cc1cc(Oc2c(Cl)cc(-n3nc(C#N)c(=O)[nH]c3=O)cc2Cl)cn(C2CCCC2)c1=O [Example 17, 2-(3,5-Dichloro-4-[(1-cyclopentyl-5-methyl-6-oxo-1,6-dihydropyridin-3-yl)oxy]phenyl) -3,5-dioxo-2,3,4,5-tetrahydro-1,2,4-triazine-6-carbonitrile]",450 nM,–,–,3.2 min
"N#Cc1nn(-c2cc(Cl)c(Oc3ccc(=O)n(-c4ccccc4)c3)c(Cl)c2)c(=O)[nH]c1=O [Example 20, 2-(3,5-dichloro-4-((6-oxo-1-phenyl-1,6-dihydropyridin-3-yl)oxy)phenyl)-3,5-dioxo-2,3,4,5-tetrahydro-1,2,4-triazine-6-carbonitrile]",88 nM,4180 nM,47.5 fold,> 120 min

# The remaining lines, values ahead:
EC50 (THRβ),EC50 (THRα),THRα/β selectivity (fold) (THRα),half-life at 1 μM [1],Structure (SMILES)
20 nM,669 nM,33.5 fold,> 120 min,"N#Cc1nn(-c2cc(Cl)c(Oc3ccc(=O)n(-c4cccc(F)c4)c3)c(Cl)c2)c(=O)[nH]c1=O [Example 22, 2-(3,5-Dichloro-4-((1-(3-fluorophenyl)-6-oxo-1,6-dihydropyridin-3-yl)oxy)phenyl)-3,5-dioxo-2,3,4,5-tetrahydro-1,2,4-triazine-6-carbonitrile]"
6 nM,220 nM,36.7 fold,> 120 min,"O=c1[nH]c(=O)n(-c2cc(Cl)c(Oc3ccc(=O)n(-c4ccccc4)c3)c(Cl)c2)nc1CF [Example 35, 2-(3,5-dichloro-4-((6-oxo-1-phenyl-1,6-dihydropyridin-3-yl)oxy)phenyl)-6-(fluoromethyl)-1,2,4-triazine-3,5(2H, 4H)-dione]"
5 nM,117 nM,23.3 fold,–,"O=c1[nH]c(=O)n(-c2cc(Cl)c(Oc3ccc(=O)n(-c4cccc(C(F)(F)F)c4)c3)c(Cl)c2)nc1CF [Example 39, 2-(3,5-Dichloro-4-((6-oxo-1-(3-(trifluoromethyl)phenyl)-1,6-dihydropyridin-3-yl)oxy)phenyl)-6-(fluoromethyl)-1,2,4-triazine-3,5(2H, 4H)-dione]"
4 nM,95 nM,23.7 fold,–,"O=c1[nH]c(=O)n(-c2cc(Cl)c(Oc3ccc(=O)n(-c4cccc(OC(F)(F)F)c4)c3)c(Cl)c2)nc1CF [Example 40, 2-(3,5-Dichloro-4-((6-oxo-1-(3-(trifluoromethoxy)phenyl)-1,6-dihydropyridin-3-yl)oxy)phenyl)-6-(fluoromethyl)-1,2,4-triazine-3,5(2H, 4H)-dione]"
117 nM,7630 nM,53.7 fold,–,"Cc1ccc(-n2cc(Oc3c(Cl)cc(-n4nc(CF)c(=O)[nH]c4=O)cc3Cl)ccc2=O)cc1 [Example 41, 2-(3,5-dichloro-4-((6-oxo-1-(p-tolyl)-1,6-dihydropyridin-3-yl)oxy)phenyl)-6-(fluoromethyl)-1,2,4-triazine-3,5(2H, 4H)-dione]"
9 nM,696 nM,72.5 fold,–,"Cc1cc(C)cc(-n2cc(Oc3c(Cl)cc(-n4nc(CF)c(=O)[nH]c4=O)cc3Cl)ccc2=O)c1 [Example 42, 2-(3,5-Dichloro-4-((1-(3,5-dimethylphenyl)-6-oxo-1,6-dihydropyridin-3-yl)oxy)phenyl) -6-(fluoromethyl)-1,2,4-triazine-3,5(2H, 4H)-dione]"
